The values below come from patent US10723859B2, “Lignin valorization in ionic liquids and deep eutectic solvent via catalysis and biocatalysis” (University of Kentucky Research Foundation, priority 2017, dated 2020).

Entries after “also recorded” stand apart in the source; their conditions may differ.

What all share (type): biochemical, Trametes versicolor
Assay [1] has as its system T. versicolor laccase. The assay is described as follows: AIL inhibition: Michaelis-Menten and Lineweaver-Burke curves of laccase. The settings on record: from changes in Vmax and Km with AIL concentration; ABTS substrate, 0.30 μg laccase. The procedure: Michaelis-Menten curves were generated by mixing appropriate concentrations of AILs and ABTS with 0.30 μg laccase in 96-well plates. Sodium citrate buffer (1.0 M, pH 5.0) was added for a final well volume of 250 μL. ABTS oxidation was measured using the same method as the initial screening. Laccase activity (V) was measured as moles of ABTS oxidized per minute per gram of laccase (mol ABTS·min^−1·g^−1 lac.) and Km was measured in μmol ABTS. Activity was fit to the Michaelis-Menten curve, shown in equation 1. [formula] These curves were linearized using the Lineweaver-Burke method, resulting in equation 2. [formula] Equation 2 was used to solve for Km and Vmax of laccase in known concentrations of AILs.

Assay [2] relates to T. versicolor laccase. The assay is described as follows: Biocompatibility screening of AILs with laccase (ABTS oxidation assay). The settings on record: for inhibitory effect on laccase (comparison among the 3 ILs): varied concentration of laccase and ILs. The procedure: All solutions used were adjusted to pH 5.0 prior to beginning experiments. Appropriate concentrations of laccase and AILs were mixed and added to clear, flat bottom 96-well Costar Assay Plates (Corning Inc.; Kenneburk, Me.). ABTS was added for a final concentration of 2 mM. Sodium citrate buffer (1.0 M, pH 5.0) was added for a final well volume of 250 μL. ABTS oxidation was measured for 5 minutes at 40° C. Absorbance readings were taken every 30 seconds at a wavelength of 420 nm using a SpectraMax M2 plate reader from Molecular Devices (Sunnyvale, Calif., USA). Plates were shaken for 5 seconds prior to initial reading and 3 seconds before each reading to ensure homogeneous well solutions.

For assay [3], the system named is T. versicolor laccase. The assay is described as follows: Lignin model compound (GGE) depolymerization by laccase in AILs, HPLC. The settings on record: 2% [C2C1Im][OAc] or 1% [Ch][Lys], 40° C., O2 30 psi, 2 hours. The procedure: Appropriate concentrations of AIL, ABTS, laccase, and GGE were mixed. Sodium citrate buffer (1.0 M, pH 5.0) was added for a final reaction volume of 1 mL. Reactions were carried out in a batch reactor at 40° C. Pure O2 was flowed through the reactor for 1 minute. The release valve of the reactor was closed, pure O2 was flowed in at a pressure of 30 psi, and the reaction was allowed to proceed for an additional 2 hours. Product profiles were analyzed by HPLC using the method as described previously (Deng, Zhang et al. 2015). Water and acetonitrile (8:2 v/v) was used as a mobile phase. Mobile phase was flowed at 0.5 mL min^−1 for 30 minutes through an Ultimate 3000 HPLC system (Dionex Corporation, Sunnyvale, Calif., USA) equipped with ultraviolet (UV) detector. Separation was achieved through use of a Zorbax Eclipse XDB-C18 column (5 μm particle size, 150×4.6 mm i.d., Agilent Technologies, Santa Clara, Calif., USA) at 25° C. Elution profile of column was measured by UV absorbance at 280 nm.

As to `C[N+](C)(C)CCO.NCCCC[C@H](N)C(=O)[O-]` [[Ch][Lys], cholinium lysinate], the “type of inhibition of laccase” value in the assay on T. versicolor laccase [1] is listed as “mixed inhibition”. Besides, the “loss of laccase activity” value in the assay on T. versicolor laccase [2] (2% AIL, ABTS oxidation, pH 5.0, 40° C.) is reported as > 50%. The “inhibitory effect on laccase (comparison among the 3 ILs)” value (“inhibitory effect on laccase” below) with T. versicolor laccase [2] (ABTS assay) was “more inhibitory”. For the same compound, the “degradation of GGE by laccase in AIL” value in the assay on T. versicolor laccase [3] (with mediator ABTS) is “able to break down GGE”; in the assay on T. versicolor laccase [3] (without ABTS, 10% [DEA][HSO4]), “not capable of breaking down GGE”.

Regarding `CCNCC.O=S(=O)(O)O` [[DEA][HSO4], diethyl ammonium hydrogen sulfate], the “type of inhibition of laccase” value in the assay with T. versicolor laccase [1] is “noncompetitive inhibition”. Also, in the assay with T. versicolor laccase [2] (10% IL, ABTS assay), the “loss of laccase activity” value is reported as “losing little of its activity; also recorded: negligible to modest loss of laccase activity”. Moreover, the “inhibitory effect on laccase” value with T. versicolor laccase [2] (ABTS assay) is given as “most biocompatible; also recorded: did not impede the ability of laccase to oxidize ABTS”. Moreover, the “degradation of GGE by laccase in AIL” value with T. versicolor laccase [3] (without ABTS, 10% [DEA][HSO4]) is reported as “capable of degrading GGE”.

Take `CC(=O)[O-].CCn1cc[n+](C)c1` [[C2C1Im][OAc], 1-ethyl-3-methylimidazolium acetate]: the “type of inhibition of laccase” value in the assay with T. versicolor laccase [1] is listed as “mixed inhibition”. Moreover, in the assay on T. versicolor laccase [2] (2% IL, ABTS assay), the “loss of laccase activity” value is listed as “significant loss of laccase activity”. Further, the “inhibitory effect on laccase” value in the assay with T. versicolor laccase [2] (ABTS assay, acetate) is “more inhibitory to laccase”. Moreover, the “degradation of GGE by laccase in AIL” value in the assay on T. versicolor laccase [3] (with mediator ABTS) was “able to break down GGE”; in the assay on T. versicolor laccase [3] (without ABTS, 10% [DEA][HSO4]), “not capable of breaking down GGE”.
